Nine molecules from US20230039816A1, “METHOD FOR INDUCING HEPATOCYTE PLASTICITY” (Public University Corporation Yokohama City University, priority 2019, published 2023) can be followed below.

For data set [1], the system named is EZH2. As to the kind of experiment: EZH2 transcription by Q-PCR in reprogrammed hepatocytes. The class given is cell-based, human. The settings on record: RM treated D22-Hep. The protocol:
The medium was changed on day 1, 3, and 5. To block the PI3K and MAPK signaling pathways, 10 μM LY29002 and a given dose of PD0325902 (0.01 μM 1 μM) were each added to RM. […] To regulate epigenetic modification, 0.25 mM NaB, 0.5 mM VPA, 10 μM Trany, 0.5 μM RG108 and 0.5 μM BIX were added in RM. […] Total RNA was isolated using a PureLinkTM RNA Mini Kit.

The subject of data set [2] is D22-Hep. As to the kind of experiment: Induction of proliferation of D22-Hep in reprogramming medium (RM). It counts as cell-based, human. The following applies: 6 days in BM+SMs/RM; PD0325901 0.01-1 μM, LY294002 10 μM, DZNep 0.1 μM, FGF2 added to BM+SMs. The protocol:
(§1) The medium was changed on day 1, 3, and 5. To block the PI3K and MAPK signaling pathways, 10 μM LY29002 and a given dose of PD0325902 (0.01 μM˜1 μM) were each added to RM. […] To regulate epigenetic modification, 0.25 mM NaB, 0.5 mM VPA, 10 μM Trany, 0.5 μM RG108 and 0.5 μM BIX were added in RM. The number of cells was analyzed using an Incell analyzer 2000 (GE Healthcare) combined with Hoechst 33342 staining (Invitrogen).

Data set [3] has as its system old N-Heps (D52-, D62-, D72-, D82-Hep). As to the kind of experiment: Plasticity induction of old N-Heps in RM with epigenetic regulators. The class given is cell-based, human. The settings on record: RM with 0.25 mM NaB, 0.5 mM VPA, 10 μM Trany, 0.5 μM RG108 or 0.5 μM BIX. The protocol:
as §1

The test system of data set [4] is PHHs. As to the kind of experiment: Plasticity induction of primary human hepatocytes. The class given is cell-based. The following applies: PHHs in RM+NaB vs RM. The protocol:
The cryopreserved PHHs were thawed according to the manufacturer's instructions. For the positive control experiments, PHHs were cultured on collagen I-coated culture dishes at a density of 1×10^5 cells/cm^2 using Williams E medium containing 5% FBS, 1 μM dexamethasone, 100 IU/mL penicillin (Thermo Fisher Scientific), 100 μg/mL streptomycin (Thermo Fisher Scientific), 4 μg/mL Human Recombinant Insulin (Sigma), 2 mM GlutaMAX (Thermo Fisher Scientific), and 15 mM HEPES (Sigma). After 24 h, the supernatant from PHHs was collected for ALB analysis. […] At day 0 of culture, 5% FBS was used to improve cell adherence. After 24 h, the medium was exchanged with a fresh medium and subsequently changed every 2 days.

The test system of data set [5] is elderly model (mice fed CDE diet). As to the kind of experiment: Induction of hepatic progenitor cells in elderly mice on CDE diet. It counts as in vivo. From the text:
Finally, we investigated whether HDACi could improve the induction of hepatic progenitor cells in elderly models. To induce hepatic progenitor cells in mice, we fed young and elderly mice with a choline-deficient, ethionine-supplemented (CDE) diet for 21 days.

The subject of data set [6] is D22-pHC. As to the kind of experiment: Hepatocyte differentiation from pHC. The class given is cell-based, human. The following applies: HDM with 3 μM RA, 15 days. The procedure: The hepatocyte differentiation of pHCs was initiated at about 90% confluence. For 8 days, the medium was changed to HDM containing 3 μM RA and for another 7 days, the medium was changed to RA-free HDM. The medium was changed every 2 days. The total hepatocyte differentiation period was 15 days.

`O=C(NOC[C@H](O)CO)c1ccc(F)c(F)c1Nc1ccc(I)cc1F` [PD0325901]: in data set [1], the EZH2 transcription result was “suppressed”. Besides, the “induced cellular proliferation of D22-Hep” value in data set [2] is “inhibited the FGF2-mediated cellular proliferation in a dose-dependent manner”.
Turning to “FGF2: Recombinant Human FGF2, member of the FGF family”, the “induced cellular proliferation of D22-Hep” value in data set [2] was “the induced proliferative ability greatly improved”.
Take `COc1cc2nc(N3CCCN(C)CC3)nc(NC3CCN(Cc4ccccc4)CC3)c2cc1OC` [BIX01294]: the “proliferation of pHCs induced from D52-Heps” value (“proliferation of pHCs induced” below) in data set [3] is on record as “such promotion was not detectable”.
For `CCCC(=O)[O-].[Na+]` [NaB, sodium butyrate], the plasticity induction efficiency result in data set [4] is reported as “significantly increased the plasticity induction efficiency”. In addition, the survival rate result in data set [5] (CDE diet) is “improved”. In addition, the “induced Ki67 positive and Epcam positive population” value in data set [5] (CDE diet 21 days, liver sections) is “significantly increased”. Also, the “proliferation of pHCs induced” value in data set [3] is reported as “markedly promoted the proliferation of pHCs”.
Turning to `N[C@@H]1C[C@H]1c1ccccc1` (racemic) [tranylcypromine], the “proliferation of pHCs induced” value in data set [3] was “such promotion was not detectable”.
Same read-out and setting: to `O=C(O)C(Cc1c[nH]c2ccccc12)N1C(=O)c2ccccc2C1=O` (stereo not shown) [RG108] belongs “such promotion was not detectable”.
Turning to `Cl.Nc1nccc2c1ncn2[C@@H]1C=C(CO)[C@@H](O)[C@H]1O` [DZNep, 3-deazaneplanocin A hydrochloride], in data set [2], the “induced cellular proliferation of D22-Hep” value is “significant attenuation of the induced cellular proliferation”.
For the molecule `CC1=C(/C=C/C(C)=C/C=C/C(C)=C/C(=O)O)C(C)(C)CCC1` [retinoic acid], in data set [6], the “ALB production and hepatocyte morphology” value was “significant improvement in ALB production and typical hepatocyte morphology”.
`CCCC(CCC)C(=O)O` [VPA, valproic acid]: the “proliferation of pHCs induced” value in data set [3] is recorded as “markedly promoted the proliferation of pHCs”.
